Assay results published in patent publication US20200085047A1, “Use of an Acyclic Picolinamide Compound as a Fungicide for Control of Phytopathogenic Fungi in Vegetables” (Dow AgroSciences LLC, priority 2017, published 2020).

Tests used:
Format in all cases: in vivo
Mycovellosiella fulva = assay: Field assessment of Mycovellosiella fulva (FULVFU) on tomato, curative; settings: 10% SC; for Percent control based on AUDPC, FULVFU, adjuvant II: Agnique BP420 (50% w/w at 0.3% v/v); for Percent control based on AUDPC, FULVFU, adjuvant I: no adjuvant
Description: Field assessment of Mycovellosiella fulva (FULVFU) on tomato:
A 10% SC formulation of compound I was tanked mixed with four different adjuvants: Agnique BP420 (50% w/w at 0.3% v/v); Trycol (50% w/w at 0.1% v/v); Ethomeen T18H (50% w/w at 0.2% v/v); and Phase II (50% w/w at 0.2% v/v). A fungicidal treatment containing formulations of compound I, either alone or with adjuvants, was sprayed on tomato plants four times, the first application approximately 3 months after planting, with the following three applications in 7-10 day intervals. Formulations of compound I were applied at rates of 50, 100, 150 and 200 grams of active ingredient per hectare (g ai/ha). The experimental plots were inoculated with the leaf mold pathogen 7 days before the first application (curative). The treatment was part of an experimental trial designed as a randomized complete block with four replications and a plot of approximately 2.5×1.4 m. Formulations of compound I were applied at water volume of 675 L/ha.
Disease severity was recorded as a percentage of visual diseased foliage (6 random plants per plot). Tomato leaf mold infection was assessed five times at 7 days after the first application (7 DAAA), 7 DAAB, 5 DAAC, followed by 7 and 12 DAAD. Area under the disease progress curve (AUDPC) was calculated for each plot using the sets of recorded severity data. Relative AUDPC (% control based on AUDPC) was calculated as percent of the nontreated control.

Alternaria solani = assay: Field assessment of Alternaria solani (ALTESO) on tomato, trial 2 (natural disease pressure); settings: for Percent disease control on tomato leaves, Trial 2, 5% EC: 5% EC + Agnique BP420; for Percent disease control on tomato leaves, Trial 2, 10% SC: 10% SC + Agnique BP420
Description: Field Assessment of Alternaria solani (ALTESO) on Tomato:
In a replicated trial, a fungicidal treatment containing Compound I, applied in both a 5% EC and 10% SC formulation and tank mixed with an adjuvant (Agnique BP420, 50% w/w at 0.3% v/v), was sprayed on tomato plants (LYPES, Taylor variety) at approximately 21 days after planting. Formulations of compound I was applied at rates of 100 and 200 grams of active ingredient per hectare (g ai/ha). The trial was based on six foliar applications at 10 day intervals under natural disease pressure of tomato early blight. The treatment was part of an experimental trial designed as a randomized complete block with four replications and a plot of approximately 2×4 m. Formulations of compound I were applied at water volume of 800 L/ha, using a backpack plot sprayer (BKPCKENG, Solo 443; HCSOLID—Albutz ATR80 Orange Nozzle) and pressurized at 300 kPa. Disease severity (percent control) was recorded as percent visual leaf infection per plot and was assessed at 10 days after the last application.

Colletotrichum capsici = assay: Field assessment of Colletotrichum capsici (COLLCA) on hot peppers, 2 day protectant; settings: 5% EC + Trycol, hot pepper
Procedure: Field Assessment of Colletotrichum capsici (COLLCA) on Hot Peppers:
Assessment of compound I of COLLCA on hot peppers, in both protectant and curative fashion, was performed in two separate field trials. For the 2 day protectant test, a fungicidal treatment containing a 5% EC formulation of compound I plus an adjuvant (Trycol, 50% w/w at 0.2% v/v), was sprayed on hot pepper plants (CPSAN) three times, the first application at the flowering and fruiting stage 43 days after planting, with the following applications in 7 day intervals. Formulations of compound I were applied at rates of 50, 100, and 150 grams of active ingredient per hectare (g ai/ha). The experimental plots were inoculated with the anthracnose pathogen 2 days after the first application. The treatment was part of an experimental trial designed as a randomized complete block with four replications and a plot of approximately 2×1 m, with formulations of compound I being applied at water volume of 1000 L/ha.
Disease severity was assessed as the percent fruit area diseased per plant (6 plants per plot randomly). Anthracnose infection was assessed four times, 7 days after application A (DAAA), 7 DAAB, plus 7 and 14 DAAC. Area under the disease progress curve (AUDPC) was calculated for each plot using the sets of recorded visual infection data. Relative AUDPC (% control based on AUDPC) was calculated as percent of the nontreated control.

Corynespora cassiicola = assay: Field assessment of Corynespora cassiicola (CORYCA) in tomato; settings: SC
Description: Field Assessment of Corynespora cassiicola (CORYCA) in Tomato:
A fungicidal treatment containing Compound I, applied in an SC formulation (MSO built-in) and tank mixed with an adjuvant (Agnique BP-420, 50% w/w at 0.2% v/v or Adsee C80W 80%), was sprayed on tomato plants (LYPES, Charger variety) at growth stage BBCH64 (4th flower open) at rates of 50, 75, 100, and 150 grams of active ingredient per hectare (g ai/ha). The experimental plots were inoculated with the target spot pathogen one day after initial application. The treatment was part of an experimental trial designed as a randomized complete block (RCB) with four replications and a plot of approximately 6×25 feet (ft). Compound I was applied at water volume of 100 gallons per acre (gal/acre), using a tractor sprayer (SCDISC D1 Nozzles) and pressurized at 200 psi.
Disease severity (percentage of visual diseased foliage (leaf) on whole plot) was assessed four times during the trial (1-20 days after application, DAA). Area under the disease progress curve (AUDPC) was calculated for each plot using the sets of recorded severity data. Relative AUDPC (% control based on AUDPC) was calculated as percent of the untreated control.

Botrytis cinerea = assay: Greenhouse assessment of Botrytis cinerea (BOTRCI) on broad bean; settings: inoculated 1-day post application
Procedure: Greenhouse Assessment of Botrytis cinerea (BOTRCI) on Broad Bean: Technical grades of material were dissolved in acetone, which were then mixed with nine volumes of water containing 100 ppm of Triton X-100. The fungicide formulations were applied onto seedling plants using an automated booth sprayer to run off. All sprayed plants were allowed to dry prior to further handling. Test plants were inoculated with Botrytis cinerea 1-day post application. When disease symptoms were fully expressed on the untreated plants, percent diseased area of the plant was assessed on a scale of 0 to 100 percent disease severity. Percent disease control was calculated using the ratio of disease severity on treated plants relative to untreated plants.

COc1ccnc(C(=O)N[C@@H](C)C(=O)O[C@@H](C)C(c2ccc(F)cc2)c2ccc(F)cc2)c1OC(C)=O [Compound I, (S)-1,1-bis(4-fluorophenyl)propan-2-yl (3-acetoxy-4-methoxypicolinoyl)-L-alaninate]
Percent control based on AUDPC, FULVFU, adjuvant II (Mycovellosiella fulva; 50 g ai/ha): A (76-100) | Percent control based on AUDPC, FULVFU, adjuvant I (Mycovellosiella fulva; 50 g ai/ha): C (26-50) | Percent control based on AUDPC, FULVFU, adjuvant II (Mycovellosiella fulva; 100 g ai/ha): A (76-100) | Percent control based on AUDPC, FULVFU, adjuvant IV (Mycovellosiella fulva; 100 g ai/ha, Ethomeen T18H (50% w/w at 0.2% v/v)): B (51-75) | Percent control based on AUDPC, FULVFU, adjuvant V (Mycovellosiella fulva; 100 g ai/ha, Phase II (50% w/w at 0.2% v/v)): A (76-100) | Percent control based on AUDPC, FULVFU, adjuvant III (Mycovellosiella fulva; 100 g ai/ha, Trycol (50% w/w at 0.1% v/v)): A (76-100) | Percent control based on AUDPC, FULVFU, adjuvant I (Mycovellosiella fulva; 100 g ai/ha): C (26-50) | Percent control based on AUDPC, FULVFU, adjuvant II (Mycovellosiella fulva; 150 g ai/ha): A (76-100) | Percent control based on AUDPC, FULVFU, adjuvant II (Mycovellosiella fulva; 200 g ai/ha): A (76-100) | Percent disease control on tomato leaves, Trial 2, 5% EC (Alternaria solani; 100 g ai/ha): A (76-100) | Percent disease control on tomato leaves, Trial 2, 10% SC (Alternaria solani; 100 g ai/ha): A (76-100) | Percent disease control on tomato leaves, Trial 2, 5% EC (Alternaria solani; 200 g ai/ha): A (76-100) | Percent disease control on tomato leaves, Trial 2, 10% SC (Alternaria solani; 200 g ai/ha): A (76-100) | Percent control based on AUDPC, COLLCA 2 DP (Colletotrichum capsici; 50 g ai/ha): A (76-100) | Percent control based on AUDPC, COLLCA 2 DP (Colletotrichum capsici; 100 g ai/ha): A (76-100) | Percent control based on AUDPC, COLLCA 2 DP (Colletotrichum capsici; 150 g ai/ha): A (76-100) | Percent Control of CORYCA (AUDPC) (Corynespora cassiicola; Compound I 50 g/ha, Agnique BP420, 200 mL/ha): 53.1% | Percent Control of CORYCA (AUDPC) (Corynespora cassiicola; Compound I 50 g/ha, MSO, 100 g/ha): 55.2% | Percent Control of CORYCA (AUDPC) (Corynespora cassiicola; Compound I 75 g/ha, Agnique BP420, 300 mL/ha): 56.9% | Percent Control of CORYCA (AUDPC) (Corynespora cassiicola; Compound I 75 g/ha, MSO, 150 g/ha): 56.1% | Percent Control of CORYCA (AUDPC) (Corynespora cassiicola; Compound I 100 g/ha, Adsee C80W 80%, 250 g/ha): 61.4% | Percent Control of CORYCA (AUDPC) (Corynespora cassiicola; Compound I 100 g/ha, Agnique BP420, 400 mL/ha): 74.1% | Percent Control of CORYCA (AUDPC) (Corynespora cassiicola; Compound I 100 g/ha, MSO, 200 g/ha): 71.6% | Percent Control of CORYCA (AUDPC) (Corynespora cassiicola; Compound I 150 g/ha, Agnique BP420, 600 mL/ha): 83.9% | Percent Control of CORYCA (AUDPC) (Corynespora cassiicola; Compound I 150 g/ha, MSO, 300 g/ha): 84.0% | % Control, BOTRCI (Botrytis cinerea; 6.25 ppm): B (51-75) | % Control, BOTRCI (Botrytis cinerea; 25 ppm): A (76-100) | % Control, BOTRCI (Botrytis cinerea; 100 ppm): A (76-100) | % Control, BOTRCI (Botrytis cinerea; 400 ppm): A (76-100)
